Laboratory results from ChEMBL document CHEMBL5653631, “A Potent and Selective ULK1 Inhibitor Suppresses Autophagy and Sensitizes Cancer Cells to Nutrient Stress” (iScience, 2018).

Experiments:
[1] = molecular target: Mitogen-activated protein kinase 1 (Homo sapiens) (UniProt P28482); experiment: Inhibition of human recombinant Erk2 at 40 nM in presence of ATP by radiometric assay relative to control
[2] = molecular target: Transient receptor potential cation channel subfamily M member 7 (Homo sapiens) (UniProt Q96QT4); experiment: Inhibition of human recombinant ChaK1 at 40 nM related to control ULK1
Sequence of Transient receptor potential cation channel subfamily M member 7 (Homo sapiens) (Q96QT4 whole entry): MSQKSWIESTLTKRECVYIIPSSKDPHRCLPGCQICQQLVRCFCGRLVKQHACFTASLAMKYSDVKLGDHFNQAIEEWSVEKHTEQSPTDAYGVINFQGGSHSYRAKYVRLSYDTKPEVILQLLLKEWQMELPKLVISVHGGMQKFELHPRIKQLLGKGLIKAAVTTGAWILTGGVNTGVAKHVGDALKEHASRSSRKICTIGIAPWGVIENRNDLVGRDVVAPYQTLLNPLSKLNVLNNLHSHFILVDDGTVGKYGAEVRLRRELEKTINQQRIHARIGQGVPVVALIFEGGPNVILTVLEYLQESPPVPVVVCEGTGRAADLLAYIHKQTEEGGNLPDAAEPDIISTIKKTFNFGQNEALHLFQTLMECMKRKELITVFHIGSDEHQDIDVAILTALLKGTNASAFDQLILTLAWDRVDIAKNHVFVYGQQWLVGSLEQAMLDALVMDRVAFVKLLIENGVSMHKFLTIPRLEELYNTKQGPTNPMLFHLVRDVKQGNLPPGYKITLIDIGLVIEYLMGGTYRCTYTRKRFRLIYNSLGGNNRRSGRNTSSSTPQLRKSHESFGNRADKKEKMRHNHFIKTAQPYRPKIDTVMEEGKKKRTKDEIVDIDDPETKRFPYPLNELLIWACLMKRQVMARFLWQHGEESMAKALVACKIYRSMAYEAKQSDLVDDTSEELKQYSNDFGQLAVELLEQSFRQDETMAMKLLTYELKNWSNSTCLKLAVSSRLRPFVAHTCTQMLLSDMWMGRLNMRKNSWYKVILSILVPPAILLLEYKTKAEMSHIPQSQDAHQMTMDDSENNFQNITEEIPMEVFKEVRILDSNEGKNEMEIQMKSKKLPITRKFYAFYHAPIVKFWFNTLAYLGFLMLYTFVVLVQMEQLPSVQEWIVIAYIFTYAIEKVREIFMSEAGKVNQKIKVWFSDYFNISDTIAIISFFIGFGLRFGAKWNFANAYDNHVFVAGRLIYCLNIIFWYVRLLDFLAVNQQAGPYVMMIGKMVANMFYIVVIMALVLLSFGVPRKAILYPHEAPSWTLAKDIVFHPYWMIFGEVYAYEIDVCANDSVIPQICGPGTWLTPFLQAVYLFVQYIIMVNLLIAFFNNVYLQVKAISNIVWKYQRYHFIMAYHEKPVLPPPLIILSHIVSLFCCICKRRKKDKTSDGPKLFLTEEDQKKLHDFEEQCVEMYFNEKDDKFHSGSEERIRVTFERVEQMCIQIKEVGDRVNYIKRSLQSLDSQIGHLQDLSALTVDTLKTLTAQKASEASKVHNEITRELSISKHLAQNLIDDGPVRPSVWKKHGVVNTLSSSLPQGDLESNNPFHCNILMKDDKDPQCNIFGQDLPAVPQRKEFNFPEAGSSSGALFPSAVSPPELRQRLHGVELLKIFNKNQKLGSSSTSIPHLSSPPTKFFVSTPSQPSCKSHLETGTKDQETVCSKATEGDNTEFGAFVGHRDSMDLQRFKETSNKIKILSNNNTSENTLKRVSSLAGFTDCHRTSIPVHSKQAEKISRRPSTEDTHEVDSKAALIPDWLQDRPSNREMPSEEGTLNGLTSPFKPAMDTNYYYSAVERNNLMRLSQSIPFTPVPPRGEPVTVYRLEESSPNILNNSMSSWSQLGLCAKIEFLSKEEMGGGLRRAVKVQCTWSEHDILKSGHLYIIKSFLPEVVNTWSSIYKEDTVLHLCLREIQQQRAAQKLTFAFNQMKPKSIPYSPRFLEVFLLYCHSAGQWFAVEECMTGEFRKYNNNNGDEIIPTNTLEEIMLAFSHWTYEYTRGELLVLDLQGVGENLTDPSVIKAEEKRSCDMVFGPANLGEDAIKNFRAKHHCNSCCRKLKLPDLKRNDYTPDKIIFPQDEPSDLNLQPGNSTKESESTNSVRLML

[3] = molecular target: Serine/threonine-protein kinase 25 (Homo sapiens) (UniProt O00506); experiment: Inhibition of human recombinant YSK1 at 40 nM in presence of ATP by radiometric assay relative to control
Sequence of Serine/threonine-protein kinase 25 (Homo sapiens) (O00506 whole entry, looked up): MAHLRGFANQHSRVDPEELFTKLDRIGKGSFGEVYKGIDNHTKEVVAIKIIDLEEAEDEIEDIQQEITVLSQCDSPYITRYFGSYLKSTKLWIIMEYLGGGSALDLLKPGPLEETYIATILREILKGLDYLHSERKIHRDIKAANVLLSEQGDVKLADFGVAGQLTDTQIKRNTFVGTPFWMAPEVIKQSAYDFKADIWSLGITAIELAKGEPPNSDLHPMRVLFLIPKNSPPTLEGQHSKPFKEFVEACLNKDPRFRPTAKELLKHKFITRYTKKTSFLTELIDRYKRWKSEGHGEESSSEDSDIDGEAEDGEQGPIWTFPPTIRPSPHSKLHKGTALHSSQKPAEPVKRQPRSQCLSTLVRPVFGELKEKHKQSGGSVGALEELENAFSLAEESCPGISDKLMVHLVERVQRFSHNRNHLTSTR

[4] = molecular target: T1, TGF-beta receptor type-1 (Homo sapiens) (UniProt P36897); experiment: Inhibition of human recombinant TGFbR1 at 40 nM related to control ULK1
T1 sequence (whole entry): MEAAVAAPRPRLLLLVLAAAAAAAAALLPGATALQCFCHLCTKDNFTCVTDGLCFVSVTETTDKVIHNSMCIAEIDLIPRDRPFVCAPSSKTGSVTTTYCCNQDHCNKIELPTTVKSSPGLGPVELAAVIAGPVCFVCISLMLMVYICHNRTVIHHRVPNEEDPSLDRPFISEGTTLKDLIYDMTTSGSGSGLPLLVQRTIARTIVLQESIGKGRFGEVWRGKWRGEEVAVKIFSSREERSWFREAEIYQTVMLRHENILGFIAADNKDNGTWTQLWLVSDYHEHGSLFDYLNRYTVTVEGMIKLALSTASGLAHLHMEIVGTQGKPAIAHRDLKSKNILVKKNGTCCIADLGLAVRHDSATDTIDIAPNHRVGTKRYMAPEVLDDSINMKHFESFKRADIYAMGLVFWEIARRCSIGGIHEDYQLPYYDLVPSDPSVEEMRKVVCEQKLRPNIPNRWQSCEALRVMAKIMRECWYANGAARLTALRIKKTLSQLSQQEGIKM

[5] = molecular target: Death-associated protein kinase 1 (Homo sapiens) (UniProt P53355); experiment: Inhibition of human recombinant DAPK1 at 15 nM related to control ULK1
[6] = molecular target: Tyrosine-protein kinase Yes (Homo sapiens) (UniProt P07947); experiment: Inhibition of human recombinant YES at 15 nM related to control ULK1
Sequence of Tyrosine-protein kinase Yes (Homo sapiens) (P07947 2-543 limits assumed): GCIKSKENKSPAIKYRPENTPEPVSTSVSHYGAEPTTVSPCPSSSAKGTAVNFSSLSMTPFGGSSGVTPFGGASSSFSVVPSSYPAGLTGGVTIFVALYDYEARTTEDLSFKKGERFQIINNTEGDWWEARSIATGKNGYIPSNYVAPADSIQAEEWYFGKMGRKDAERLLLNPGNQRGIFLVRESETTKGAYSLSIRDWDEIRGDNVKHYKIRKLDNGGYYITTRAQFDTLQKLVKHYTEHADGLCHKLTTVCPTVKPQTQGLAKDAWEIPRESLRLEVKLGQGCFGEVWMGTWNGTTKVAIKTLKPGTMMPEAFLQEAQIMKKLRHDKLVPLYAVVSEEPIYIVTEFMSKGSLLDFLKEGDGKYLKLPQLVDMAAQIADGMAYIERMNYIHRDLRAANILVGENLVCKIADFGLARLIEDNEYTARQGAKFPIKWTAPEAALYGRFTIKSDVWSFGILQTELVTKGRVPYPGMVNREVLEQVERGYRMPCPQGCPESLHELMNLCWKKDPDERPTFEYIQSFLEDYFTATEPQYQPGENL

[7] = molecular target: T2, Serine/threonine-protein kinase ICK (Homo sapiens) (UniProt Q9UPZ9); experiment: Inhibition of human recombinant ICK at 15 nM related to control ULK1
T2 sequence (whole entry): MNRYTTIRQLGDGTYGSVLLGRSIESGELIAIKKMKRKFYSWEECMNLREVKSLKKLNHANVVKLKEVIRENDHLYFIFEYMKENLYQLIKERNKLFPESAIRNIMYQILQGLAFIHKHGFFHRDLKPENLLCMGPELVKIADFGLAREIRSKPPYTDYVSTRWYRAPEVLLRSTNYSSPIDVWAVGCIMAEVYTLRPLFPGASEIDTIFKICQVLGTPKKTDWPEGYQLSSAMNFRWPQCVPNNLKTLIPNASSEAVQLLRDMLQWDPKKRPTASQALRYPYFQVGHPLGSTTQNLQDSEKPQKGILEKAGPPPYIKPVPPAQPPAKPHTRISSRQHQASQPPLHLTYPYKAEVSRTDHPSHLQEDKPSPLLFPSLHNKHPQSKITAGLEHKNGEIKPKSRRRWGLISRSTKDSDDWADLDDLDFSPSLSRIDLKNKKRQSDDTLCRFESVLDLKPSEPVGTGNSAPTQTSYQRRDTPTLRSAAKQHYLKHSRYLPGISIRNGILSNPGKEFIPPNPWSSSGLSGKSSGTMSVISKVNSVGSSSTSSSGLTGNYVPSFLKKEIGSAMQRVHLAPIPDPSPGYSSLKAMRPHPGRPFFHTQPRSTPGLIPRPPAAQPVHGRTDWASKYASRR

[8] = molecular target: T3, Ephrin type-B receptor 1 (Homo sapiens) (UniProt P54762); experiment: Inhibition of human recombinant EphB1 at 500 nM in presence of ATP by radiometric assay relative to control
T3 sequence (whole entry): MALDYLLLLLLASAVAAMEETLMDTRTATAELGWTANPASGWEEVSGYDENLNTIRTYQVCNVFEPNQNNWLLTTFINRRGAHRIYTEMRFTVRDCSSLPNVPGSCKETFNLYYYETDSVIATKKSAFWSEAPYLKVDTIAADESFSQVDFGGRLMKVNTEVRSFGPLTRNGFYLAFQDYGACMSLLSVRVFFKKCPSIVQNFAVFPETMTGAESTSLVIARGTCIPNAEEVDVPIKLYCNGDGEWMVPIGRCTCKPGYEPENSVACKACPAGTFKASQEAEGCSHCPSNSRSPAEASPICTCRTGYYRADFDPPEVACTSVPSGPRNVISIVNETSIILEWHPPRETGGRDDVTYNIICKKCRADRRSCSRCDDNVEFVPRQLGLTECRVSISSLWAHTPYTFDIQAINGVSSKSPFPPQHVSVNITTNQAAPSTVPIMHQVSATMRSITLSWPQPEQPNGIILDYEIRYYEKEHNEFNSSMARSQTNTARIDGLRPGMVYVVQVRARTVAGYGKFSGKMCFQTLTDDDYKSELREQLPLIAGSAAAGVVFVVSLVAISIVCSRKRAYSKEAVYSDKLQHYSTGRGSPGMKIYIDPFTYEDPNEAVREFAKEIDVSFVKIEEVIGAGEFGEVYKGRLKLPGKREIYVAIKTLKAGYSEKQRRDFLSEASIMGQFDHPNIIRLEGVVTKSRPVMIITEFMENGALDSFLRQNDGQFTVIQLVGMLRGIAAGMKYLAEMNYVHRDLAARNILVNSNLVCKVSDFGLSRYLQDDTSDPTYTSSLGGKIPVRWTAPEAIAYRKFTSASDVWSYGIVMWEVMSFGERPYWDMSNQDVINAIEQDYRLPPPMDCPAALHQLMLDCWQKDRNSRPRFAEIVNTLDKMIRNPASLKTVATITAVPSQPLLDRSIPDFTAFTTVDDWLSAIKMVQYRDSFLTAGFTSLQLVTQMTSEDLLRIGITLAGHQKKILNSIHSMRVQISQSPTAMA

[9] = molecular target: Serine/threonine-protein kinase WNK2 (Homo sapiens) (UniProt Q9Y3S1); experiment: Inhibition of human recombinant Wnk2 at 500 nM in presence of ATP by radiometric assay relative to control
[10] = molecular target: Serine/threonine-protein kinase 4 (Homo sapiens) (UniProt Q13043); experiment: Inhibition of human recombinant MST1 at 500 nM in presence of ATP by radiometric assay relative to control
Sequence of Serine/threonine-protein kinase 4 (Homo sapiens) (Q13043 whole entry, looked up): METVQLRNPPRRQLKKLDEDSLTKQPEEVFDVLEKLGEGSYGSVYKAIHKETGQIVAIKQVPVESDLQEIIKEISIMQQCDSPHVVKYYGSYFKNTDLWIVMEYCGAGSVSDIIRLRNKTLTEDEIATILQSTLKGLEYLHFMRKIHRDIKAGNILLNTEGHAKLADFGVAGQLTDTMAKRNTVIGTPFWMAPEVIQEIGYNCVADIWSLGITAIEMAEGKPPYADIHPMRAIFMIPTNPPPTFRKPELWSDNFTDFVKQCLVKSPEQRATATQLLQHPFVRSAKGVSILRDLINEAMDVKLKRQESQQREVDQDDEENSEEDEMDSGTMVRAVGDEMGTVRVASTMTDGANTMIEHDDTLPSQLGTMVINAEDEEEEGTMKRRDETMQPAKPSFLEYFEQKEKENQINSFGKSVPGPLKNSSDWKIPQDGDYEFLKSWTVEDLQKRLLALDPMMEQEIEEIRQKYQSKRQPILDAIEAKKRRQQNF

Sequence of Mitogen-activated protein kinase 1 (Homo sapiens) (P28482 whole entry): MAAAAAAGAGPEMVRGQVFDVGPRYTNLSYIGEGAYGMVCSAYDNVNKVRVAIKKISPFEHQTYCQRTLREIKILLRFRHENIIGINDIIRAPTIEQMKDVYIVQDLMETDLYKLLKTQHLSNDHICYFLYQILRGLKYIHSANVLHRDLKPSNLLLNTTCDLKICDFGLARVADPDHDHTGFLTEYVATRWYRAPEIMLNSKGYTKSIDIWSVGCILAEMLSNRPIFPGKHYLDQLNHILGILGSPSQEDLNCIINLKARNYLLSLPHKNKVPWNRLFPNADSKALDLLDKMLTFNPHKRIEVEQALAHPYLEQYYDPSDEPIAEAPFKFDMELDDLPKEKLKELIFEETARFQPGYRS

In the case of `O=C(N[C@@H](C1CC1)C(F)(F)F)c1cc(-c2cnn3cc(-c4ccc(F)cc4)cnc23)cs1`, the inhibition [1] is reported as 0%, the fold change (FC) [2] is reported as 0.01 and the inhibition [3] is reported as 0%. It also gave a fold change (FC) [4] of 0.
In the case of `CC(C)[C@H](NC(=O)c1cc(-c2cnn3cc(-c4ccc(OCCN5CCCCC5)cc4)cnc23)cs1)C(F)(F)F`, the fold change (FC) [5] is reported as 0.05, the fold change (FC) [6] is reported as 0.86 and the fold change (FC) [7] is reported as 0.
Work on `CNC(=O)c1ccccc1Oc1nc(Nc2cc(OC)c(OC)c(OC)c2)ncc1Br` yielded an inhibition [8] of 10%, an inhibition [9] of 1% and an inhibition [10] of 0%.
